Source: patent US11866430B2, “Naphthyridinone compounds useful as T cell activators” (priority 2018, dated 2024)

Tested on: naïve human CD8 T cells
Test: Human CD8 T cells pERK Assay
Assay type: cell-based
Conditions: T-cell, read-out: HuCD8 pERK IC50
Experimental: Frozen naïve human CD8 T cells were thawed in AIM-V media, incubated for 2 h in 37° C., and counted. The CD8 positive T cells were added to 384-well tissue culture plate at 20,000 cells per well in AIM-V media. One compound was added to each well, then bead bound anti-human CD3 and anti-CD28 mAb were added at final concentration of 0.3 μg/mL. The cells were incubated at 37° C. for 10 minutes. The reaction was stopped by adding lysis buffer from the AlphaLISA Surefire kit. (Perkin Elmer, cat #ALSU-PERK-A). Lysate (5 μL per well) was transferred into a new 384-well white assay plate for pERK activation measurement.

SMILES | IC50
COc1cc(F)ccc1C(c1ccc(F)cc1)N1CCN(c2c([N+](=O)[O-])c(=O)n(C)c3ccc(C#N)nc23)CC1 (single isomer, unassigned) [Example 124, 8-(4-((4-fluoro-2-methoxyphenyl)(4-fluorophenyl)methyl)piperazin-1-yl)-5-methyl-7-nitro-6-oxo-5,6-dihydro-1,5-naphthyridine-2-carbonitrile] | 360 nM
C#CCn1c(=O)c([N+](=O)[O-])c(N2CCN(C(c3ccc(F)cc3)C3CC3)CC2)c2nc(C#N)ccc21 (single isomer, unassigned) [Example 143, 8-(4-(cyclopropyl(4-fluorophenyl)methyl)piperazin-1-yl)-7-nitro-6-oxo-5-(prop-2-yn-1-yl)-5,6-dihydro-1,5-naphthyridine-2-carbonitrile] | 60 nM
